B1: IL-23: cytokine (R&D Systems) (protein, UniProt Q9NPF7 20-189; P29460 23-328, looked up)
Interleukin-23 subunit alpha: RAVPGGSSPAWTQCQQLSQKLCTLAWSAHPLVGHMDLREEGDEETTNDVPHIQCGDGCDPQGLRDNSQFCLQRIHQGLIFYEKLLGSDIFTGEPSLLPDSPVGQLHASLLGLSQLLQPEGHHWETQQIPSLSPSQPWQRLLLRFKILRSLQAFVAVAARVFAHGAATLSP
Interleukin-12 subunit beta: IWELKKDVYVVELDWYPDAPGEMVVLTCDTPEEDGITWTLDQSSEVLGSGKTLTIQVKEFGDAGQYTCHKGGEVLSHSLLLLHKKEDGIWSTDILKDQKEPKNKTFLRCEAKNYSGRFTCWWLTTISTDLTFSVKSSRGSSDPQGVTCGAATLSAERVRGDNKEYEYSVECQEDSACPAAEESLPIEVMVDAVHKLKYENYTSSFFIRDIIKPDPPKNLQLKPLKNSRQVEVSWEYPDTWSTPHSYFSLTFCVQVQGKSKREKKDRVFTDKTSATVICRKNASISVRAQDRYYSSSWSEWASVPCS

What was measured:
STAT5 = test: Cytokine-induced STAT5 activation in CD4+ T cells, immunoblotting; type: cell-based, mouse; conditions: for STAT5 activation (tyrosine phosphorylation): CD4+ T cells cultured with TGF-β and IL-6 3 days, starved 6 h
Description: (§1) In FIG. 10A, purified CD4^+ T cells were cultured with TGF-β and IL-6 for 3 days, followed by starvation for 6 h. Then cells were treated with various cytokines for 30 min, and pSTAT3 and pSTAT5 was determined by immunoblotting. STAT3 and STAT5 were further detected after stripping. […] The RT-PCR data were normalized to β-Actin. […] The frequencies of GM-CSF^+ and IL-17^+ cells among CD4^+CD44^hi T cells were measured by flow cytometry. *p<0.05.
(§2) FIGS. 17A-17C show flow cytometry of CD25 and CD127 on the surface of naïve CD4^+ T cells or cells activated with anti-CD3 and anti-CD28 at various time points as indicated. […] The RT-PCR data were normalized to β-Actin, and expression in naïve T cells activated for 2 h without cytokine was set to 1.
As shown in FIGS. 18A and 18B, CD4^+ T cells were activated with anti-CD3 and anti-CD28 for 3 days. […] The pTyr-STAT5 and β-Actin were detected by immunoblotting (FIG. 18A). GM-CSF mRNA expression was measured by RT-PCR (FIG. 18B). The RT-PCR data were normalized to β-Actin, and expression in cells without cytokine stimulation was set to 1. The ChIP assay shown in FIG. 18C was performed with normal IgG or STAT5-specific antibody. The binding of antibodies to Csf2 promoter region was detected by RT-PCR.
(§3) Next, the mechanism by which STAT5 regulates GM-CSF expression was investigated. […] Therefore, the effect of these two cytokines on GM-CSF induction in autoreactive T cells was further examined. […] GM-CSF and IL-17 production by CD4^+ T cells were analyzed by intracellular cytokine staining.

naïve CD4+ T cells [1] = test: In vitro TH-GM (GM-CSF-expressing TH) differentiation from naïve CD4+ T cells; type: cell-based, mouse; conditions: anti-CD3 and anti-CD28 plus cytokine or antibody
Description: Naïve CD4^+ T cells were primed with plate-bound anti-CD3 and soluble anti-CD28 in the presence of a combination of various cytokines and neutralizing antibodies as indicated. GM-CSF, IL-17 and IFN-γ expression was analyzed by intracellular staining (FIG. 13A) or RT-PCR (FIG. 13B)
GM-CSF and IFN-γ expression in naive CD4^+ T cells activated for 72 h with anti-CD3 alone or plus anti-CD28 (FIG. 14A). In FIG. 14B, sorted naïve CD4^+ T cells were stimulated with anti-CD3 and anti-CD28 in the presence of neutralizing antibodies against IL-12 and IFN-γ without or with the addition of IL-6. The frequencies of GM-CSF^+ and IL-17^+ cells were measured by intracellular staining (FIG. 14B). In FIG. 14C, naïve CD4^+ T cells from Stat3^+/+ and Stat3^−/− mice were polarized under conditions as indicated for 72 h. The frequencies of GM-CSF^+ and IL-17^+ cells were analyzed. In FIG. 14D, naïve CD4^+ T cells were activated with anti-CD3 and anti-CD28 in the presence of IL-2 or anti-IL-2. The frequencies of GM-CSF^+, IL-17^+ and IFN-γ^+ cells were analyzed.
Naïve CD4^+ T cells were primed with plate-bound anti-CD3 and soluble anti-CD28 in the presence of various concentration of IL-7 as indicated. GM-CSF and IFN-γ expression was analyzed by intracellular staining (FIG. 15A) or ELISA (FIG. 15B). In FIGS. 15C and 15D, Stat5^+/+ and Stat5^−/− naïve CD4^+ T cells were activated with anti-CD3 and anti-CD28 in the presence IL-7 for 3 days. GM-CSF, IL-17 and IFN-γ expression was analyzed by intracellular cytokine staining (FIG. 15C). GM-CSF secretion was measured by ELISA (FIG. 15D).
In FIG. 22E, naïve CD4^+ T cells were isolated and activated under neutral condition or TH-GM cell-favoring condition with the addition of different concentrations of STAT5 inhibitor for 3 days. GM-CSF and IFN-γ expression was analyzed by intracellular cytokine staining and flow cytometry.

naïve CD4+ T cells [2] = test: GM-CSF mRNA expression in naïve CD4+ T cells stimulated with IL-2 or IL-7, RT-PCR; type: cell-based, mouse; conditions: anti-CD3 and anti-CD28 plus cytokine
Description: as §2
The primer sequences are available upon request.

CD4+CD44hi T cells = test: MOG35-55 challenge of splenocytes from immunized mice, GM-CSF expression; type: cell-based, mouse; conditions: MOG35-55 (20 μg/ml) plus cytokine, 48 h
Description: as §1, §3

naïve CD4+ T cells [3] = test: In vitro TH17 differentiation; type: cell-based, mouse; conditions: data not shown
Description: CD4^+ T cells were obtained from spleens and lymph nodes by positive selection and magnetic separation (Miltenyi Biotech), followed by purification of naïve CD4^+ T cell population (CD4^+CD25^−CD62L^hiCD44^lo) sorted with FACS Aria. Naïve CD4^+ T cells were stimulated with plate-bound anti-CD3 (3 μg/ml; BD Pharmingen) and anti-CD28 (1 μg/ml; BD Pharmingen) in presence of different combinations of neutralizing antibodies and cytokines for 3˜4 days: for neutral conditions, no addition of any cytokine or neutralizing antibody; for TH1 conditions, IL-12 (10 ng/ml), and anti-IL-4 (10 μg/ml, BD Pharmingen); for TH17 conditions, hTGF-β (3 ng/ml), IL-6 (20 ng/ml), anti-IFN-γ (10 μg/ml, eBioscience), and anti-IL-4 (10 μg/ml); for an alternative TH17 conditions, IL-6 (20 ng/ml), IL-23 (10 ng/ml), IL-1β (10 ng/ml), anti-IFN-γ (10 μg/ml), and anti-IL-4 (10 μg/ml). […] Cells were acquired on the LSR II (BD Biosciences) and analyzed with FlowJo software (Tree Star).
Stat5 deletion (Cd4-cre; Stat5^f/−) mice was reported to develop peripheral lymphopenia, with a reduction of both CD4^+ and CD8^+ T cells (Yao et al., 2006). […] Furthermore, increased frequencies of IL-17^+ and IFN-γ^+ cells were detected among CD4^+ T cells in spleens of Stat5^−/− mice (FIG. 4C), which further support the idea that the resistance to EAE in Stat5^−/− mice is likely independent of TH1 and TH17 generation. […]

[4] = system: CD62LhiCD44lo and CD62LloCD44hi T cells; test: GM-CSF expression in sorted CD62LhiCD44lo and CD62LloCD44hi T cells, RT-PCR; type: cell-based, mouse; conditions: anti-CD3 and anti-CD28, cytokine 4 h
Description: Splenocytes were obtained from MOG35-55/CFA-immunized Stat5^+/+ and Stat5^−/− mice before disease onset and challenged with MOG35-55 (20 μg/ml) in the absence or presence of IL-7 for 48 h. Frequencies of GM-CSF^+ and IL-17^+ cells among CD4^+CD44^hi T cells were measured by flow cytometry (FIG. 11A). GM-CSF secretion was measured by ELISA (FIG. 11B). Data represent two independent experiments with two to three mice per group. Splenic CD62L^hiCD44^lo and CD62L^loCD44^hi T cells from MOG35-55/CFA-immunized mice were sorted out. Cells were stimulated with anti-CD3 and anti-CD28 in the absence or presence of IL-7 for 4 h and then harvested for the analysis of GM-CSF expression by RT-PCR (FIG. 11C). *p<0.05
Total RNA was extracted from cells with RNeasy kit (Qiagen) according to the manufacturer's instruction. Complementary DNA (cDNA) was synthesized with Superscript reverse transcriptase (Invitrogen). Gene expressions were measured by 7500 real-time PCR system (Applied Biosystems) with SYBR qPCR kit (KAPA). Actinb, Gapdh or Rn18S was used as internal control. The primer sequences are available upon request.
Thus, CD62L^hiCD44^lo and CD62L^loCD44^hi T cells were sorted from Stat5^−/− mice and littermate controls during EAE development, and then activated cells in the presence or absence of IL-7.

naïve CD4+ T cells [5] = conditions: El-Behi et al., 2011; cited from earlier work

Molecule	STAT5 activation (tyrosine phosphorylation) (STAT5; cytokine 30 min)	GM-CSF-expressing cell differentiation from naïve CD4+ T cells (naïve CD4+ T cells [1])	further results
IL-1β: cytokine (R&D Systems)	neither IL-23 nor IL-1β seemed to be potent STAT5 stimulators	did not increase GM-CSF-expressing cell differentiation	–
IL-6: cytokine (R&D Systems), essential for TH17 differentiation	–	profound inhibitory effect	–
IL-7: cytokine interleukin-7 (R&D Systems)	potently activated STAT5	strongly promoted	GM-CSF mRNA expression in naïve CD4+ T cells (naïve CD4+ T cells [2]): upregulated GM-CSF mRNA expression; frequency of GM-CSF+ T cells / GM-CSF expression in CD4+CD44hi T cells (CD4+CD44hi T cells): significantly promoted GM-CSF expression; STAT5 activation, Csf2 promoter binding and GM-CSF mRNA in activated CD4+ T cells (STAT5; CD4+ T cells activated 3 days, rested, then cytokine): induced STAT5 activation, Csf2 promoter binding and GM-CSF mRNA upregulation; STAT5 activation in naïve CD4+ T cells (STAT5; naïve CD4+ T cells, cytokine 30 min): induced STAT5 activation; TH17 differentiation (naïve CD4+ T cells [3]): not observed to have a demonstrable effect; GM-CSF expression in CD62LhiCD44lo and CD62LloCD44hi T cells [4]: promoted GM-CSF expression
TGF-β: cytokine (R&D Systems)	–	–	GM-CSF expression (naïve CD4+ T cells [5]): inhibits GM-CSF expression
B1	neither IL-23 nor IL-1β seemed to be potent STAT5 stimulators	did not increase GM-CSF-expressing cell differentiation	–

Reference: patent US10690666B2, “Methods and compositions for modulating TH-GM cell function” (National University of Singapore, priority 2014, dated 2020)
